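The compound was tested at five concentrations on cells cultured in 96-well plates, with a 48-hour exposure period. Abbreviation: GI50, concentration required for 50% inhibition of growth.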 The source made the active and inactive calls. No stated cut-off is given here; in the data, active = GI50 up to about 1.1 µM and inactive = higher.
Legend:
Test in all cases: inhibition of tumour cell growth, NCI panel, 48 h
786-0 = system: 786-0
LOX IMVI = system: LOX IMVI
M14 = system: M14
OVCAR-5 = system: OVCAR-5
M19-MEL = system: M19-MEL
MOLT-4 = system: MOLT-4
NCI-H23 = system: NCI-H23
Malme-3M = system: Malme-3M
IGROV-1 = system: IGROV-1
HL-60 = system: HL-60
UACC-62 = system: UACC-62
SF-295 = system: SF-295
U-251 = system: U-251
HCC 2998 = system: HCC 2998
RPMI-8226 = system: RPMI-8226
UO-31 = system: UO-31
MDA-MB-435 = system: MDA-MB-435
NCI/ADR-RES = system: NCI/ADR-RES
DU-145 = system: DU-145
T47D = system: T47D

Measured: GI50

Cc1cc2c(cc1C)[n+]([O-])c(C(=O)C/C(=N/NC(=O)c1ccccc1O)C(=O)Nc1ccccc1C(C)C)c(C)[n+]2[O-]
inactive: 786-0 88.1 µM | LOX IMVI 87.3 µM | M14 > 100 µM | OVCAR-5 > 100 µM | M19-MEL > 100 µM | MOLT-4 21.9 µM | NCI-H23 > 100 µM | Malme-3M > 100 µM | IGROV-1 > 100 µM | HL-60 14.8 µM | UACC-62 68.1 µM | SF-295 > 100 µM | U-251 > 100 µM | HCC 2998 > 100 µM

COc1ccc(-c2oc3cc(O)c(OC)c(O)c3c(=O)c2OC2OC(CO)C(O)C(O)C2O)cc1 (configuration not stated)
inactive: 786-0 > 100 µM | LOX IMVI > 100 µM | M14 > 100 µM | M19-MEL > 100 µM | MOLT-4 > 100 µM | NCI-H23 > 100 µM | RPMI-8226 21.2 µM | IGROV-1 > 100 µM | HL-60 > 100 µM | UACC-62 > 100 µM | SF-295 > 100 µM | UO-31 82 µM | U-251 > 100 µM | HCC 2998 > 100 µM

NC(CNc1ccc(O)cc1)C(=O)O (configuration not stated)
inactive: 786-0 16 µM | LOX IMVI 60.8 µM | M14 80.7 µM | OVCAR-5 > 100 µM | M19-MEL 28.8 µM | MOLT-4 > 100 µM | Malme-3M > 100 µM | RPMI-8226 > 100 µM | HL-60 31.5 µM | UACC-62 20.9 µM | SF-295 > 100 µM | UO-31 > 100 µM | U-251 > 100 µM

CCc1c(Cl)c(C)cc(O)c1Cl
inactive: 786-0 38.2 µM | LOX IMVI 23.8 µM | M14 34.7 µM | OVCAR-5 > 100 µM | MDA-MB-435 35.6 µM | MOLT-4 27.4 µM | NCI-H23 34.8 µM | Malme-3M 30.1 µM | RPMI-8226 24.1 µM | IGROV-1 51.1 µM | NCI/ADR-RES 45.2 µM | HL-60 18.3 µM | UACC-62 32.6 µM | SF-295 33.1 µM | UO-31 23.7 µM | U-251 15.6 µM | HCC 2998 1.71 µM | DU-145 > 100 µM | T47D 26.8 µM

N=C(N)NS(=O)(=O)c1ccc(NC(=O)c2cccc3c(Nc4ccc(S(N)(=O)=O)cc4)c4ccccc4nc23)cc1
inactive: 786-0 > 100 µM | LOX IMVI > 100 µM | M14 > 100 µM | OVCAR-5 > 100 µM | M19-MEL > 100 µM | MOLT-4 > 100 µM | NCI-H23 > 100 µM | Malme-3M > 100 µM | RPMI-8226 > 100 µM | IGROV-1 > 100 µM | UACC-62 > 100 µM | SF-295 > 100 µM | UO-31 > 100 µM | U-251 > 100 µM | HCC 2998 > 100 µM

CCc1nc2c([nH]1)C(=O)c1ccccc1C2=O
inactive: 786-0 61.4 µM | M14 46.9 µM | OVCAR-5 > 100 µM | M19-MEL 15.3 µM | MOLT-4 46.3 µM | NCI-H23 29 µM | Malme-3M 24.8 µM | HL-60 25.6 µM | UACC-62 29.9 µM | SF-295 45.7 µM | UO-31 80.9 µM | U-251 55.5 µM | HCC 2998 31.8 µM

CCCCCCCC(=O)OCC(C[As](=O)(O)O)OC(=O)CCCCCCC (configuration not stated)
inactive: 786-0 17.2 µM | M14 15 µM | M19-MEL 15.7 µM | MOLT-4 16.6 µM | NCI-H23 15.2 µM | Malme-3M 15.1 µM | RPMI-8226 17.6 µM | IGROV-1 13.8 µM | HL-60 5.56 µM | UACC-62 13.8 µM | SF-295 16.6 µM | UO-31 15 µM | U-251 15 µM | HCC 2998 17.7 µM

Cc1ccc(Nc2cccc3c2C(=O)c2cccc(Nc4ccc(C)cc4S(=O)(=O)O)c2C3=O)c(S(=O)(=O)O)c1
inactive: 786-0 > 100 µM | M14 > 100 µM | M19-MEL > 100 µM | MOLT-4 > 100 µM | Malme-3M > 100 µM | RPMI-8226 > 100 µM | IGROV-1 > 100 µM | HL-60 > 100 µM | UACC-62 > 100 µM | UO-31 > 100 µM | U-251 > 100 µM | HCC 2998 > 100 µM

CC1C(=O)O[B-]2(c3ccccc3)Oc3ccccc3C=[N+]12 (configuration not stated)
inactive: 786-0 > 100 µM | LOX IMVI > 100 µM | M14 > 100 µM | OVCAR-5 > 100 µM | MDA-MB-435 > 100 µM | MOLT-4 > 100 µM | NCI-H23 > 100 µM | Malme-3M > 100 µM | RPMI-8226 > 100 µM | IGROV-1 > 100 µM | NCI/ADR-RES > 100 µM | HL-60 96.4 µM | UACC-62 > 100 µM | SF-295 > 100 µM | UO-31 > 100 µM | U-251 > 100 µM | HCC 2998 > 100 µM | DU-145 > 100 µM | T47D > 100 µM

CC1C=CC(O)[C@]2(CO)CC3(CCC12)OCCO3 (some centres not stated)
inactive: 786-0 > 100 µM | M14 > 100 µM | OVCAR-5 > 100 µM | M19-MEL > 100 µM | MOLT-4 > 100 µM | NCI-H23 > 100 µM | Malme-3M > 100 µM | IGROV-1 > 100 µM | HL-60 > 100 µM | UACC-62 > 100 µM | SF-295 > 100 µM | UO-31 > 100 µM | U-251 > 100 µM | HCC 2998 > 100 µM
